Laboratory results reported in patent publication EP2771349B1, “BIO[…] FOR DETERMINATION OF PEPTIDE BINDING” (Iogenetics, LLC., priority 2011, dated 2013).

Assay: Principal components analysis of amino acid physical properties from 31 studies
Details: for Prin1: first principal component, index of amino acid polarity or hydrophobicity, most hydrophobic highest; for Prin2: second principal component, related to size or volume, smallest has highest score; for Prin3: third principal component
Text: In some cases, principal components of amino acids are utilized to accurately predict binding affinities of sub-sequences of amino acids within the proteins to all MHC-I and MHC-II receptors. Principal Components Analysis is a mathematical process that is used in many different scientific fields and which reduces the dimensionality of a set of data. (Bishop, C.M., Neural Networks for Pattern Recognition. Oxford University Press, Oxford 1995. Bouland, H. and Kamp,Y., Biological Cybernetics 1988. 59: 291-294.). Derivation of principal components is a linear transformation that locates directions of maximum variance in the original input data, and rotates the data along these axes. Typically, the first several principal components contain the most information. Principal components is particularly useful for large datasets with many different variables. Using principal components provides a way to picture the structure of the data as completely as possible by using as few variables as possible. For n original variables, n principal components are formed as follows: The first principal component is the linear combination of the standardized original variables that has the greatest possible variance. Each subsequent principal component is the linear combination of the standardized original variables that has the greatest possible variance and is uncorrelated with all previously defined components. Further, the principal components are scale-independent in that they can be developed from different types of measurements. For example, datasets from HPLC retention times (time units) or atomic radii ([…]) can be consolidated to produce principal components. Another characteristic is that principal components are weighted appropriately for their respective contributions to the response and one common use of principal components is to develop appropriate weightings for regression parameters in multivariate regression analysis. Outside the field of immunology, principal components analysis (PCA) is most widely used in regression analysis. Initial tests were conducted using the principal components in a multiple regression partial least squares (PLS) approach (Wold, S., Sjorstrom,M., and Eriksson,L., Chemometrics and Intelligent Laboratory Systems 2001. 58: 109-130.). Principal component analysis can be represented in a linear network. PCA can often extract a very small number of components from quite high-dimensional original data and still retain the important structure.
Accordingly, in some cases physical properties of amino acids are used for subsequent analysis. The compiled physical properties are available at a proteomics resource website (expasy.org/tools/protscale.html). In some cases, the data for each of the 20 different amino acids from these studies are tabulated, resulting in 20 x 31 different datapoints, each providing a unique estimate of a physical characteristic of that amino acid. The power of principal component analysis lies in the fact that the results of all of these studies can be combined to produce a set of mathematical properties of the amino acids which have been derived by a wide array of independent methodologies. The patterns derived in this way are similar to those of Wold et. al. but the absolute numbers are different. The physicochemical properties derived in the studies used for this calculation are shown in (Table 2). […] All subsequent work described herein is based on use of the first three principal components.
From this it can be seen that the first principal component (Prin1) is an index of amino acid polarity or hydrophobicity; the most hydrophobic amino acids have the highest numerical value. The second principal component (Prin2) is related to the size or volume of the amino acid, with the smallest having the highest score. […]

Compound | Prin1 | Prin2 | Prin3
CC(N)C(=O)O (stereo not drawn) [A] | 0.72 | 2.48 | 1.42
NC(CC(=O)O)C(=O)O (stereo not drawn) [D] | -6.04 | 0.03 | -0.18
NC(CCC(=O)O)C(=O)O (stereo not drawn) [E] | -5.70 | 0.34 | -1.46
NCC(=O)O [G] | -0.76 | 3.08 | 1.21
NC(Cc1c[nH]cn1)C(=O)O (stereo not drawn) [H] | -2.55 | -1.00 | -1.94
NCCCCC(N)C(=O)O (stereo not drawn) [K] | -6.68 | -1.32 | 1.16
NC(=O)CC(N)C(=O)O (stereo not drawn) [N] | -4.35 | 0.21 | 0.30
O=C(O)C1CCCN1 (stereo not drawn) [P] | -0.03 | -0.36 | 1.87
NC(=O)CCC(N)C(=O)O (stereo not drawn) [Q] | -3.97 | -0.47 | 0.15
N=C(N)NCCCC(N)C(=O)O (stereo not drawn) [R] | -6.30 | -2.93 | -0.91
CC(O)C(N)C(=O)O (stereo not drawn) [T] | -1.42 | 0.80 | 0.94
